Measurements taken from patent publication US12643891B2, “SPAK/OSR inhibitors and methods of using same” (YALE UNIVERSITY, priority 2019, dated 2026).

What was measured:
[1] = tested on: pancreatic cancer cells; test: Pancreatic cancer cell migration in vitro; assay type: cell-based; details: FIG. 36
[2] = tested on: GBM612 cells; test: On target activity in GBM612 cells (Western blot); assay type: cell-based, human; details: on target activity in GBM cells
[3] = target: T1, SPAK (Homo sapiens, UniProt Q9UEW8); test: In vitro SPAK ELISA assay monitoring NKCC1 phosphorylation (T^PNKCC1 antibody); assay type: biochemical; details: on target activity in vitro; read-out: IC50 In vitro
T1 construct: GST (N, cleaved yes); made in house; host or cells: E. coli EcAR7 with Sep-OTS

[4] = target: T1, SPAK; test: as above; assay type: biochemical; details: analogues of (6a)
Method: The GlaxoSmithKline published kinase inhibitor set, PKIS (Dranchak, et al., 2013, Plos One 8), was used to evaluate potential SPAK drug inhibitor candidates. The pilot inhibitor screen tested the capability of 320 compounds to inhibit the kinase activity of purified co-expressed SP382 WNK1 (1-661)/WT SPAK using an ELISA based screen monitoring a reduction in NKCC1 phosphorylation with the NKCC1 phospho-specific antibody, T^PNKCC1. 10 nL of each inhibitor compound (final concentration 20 μM) or DMSO vehicle controls were added to dry 384 well-flat bottom low volume non-binding assay plates (Corning) using an Echo 550 Acoustic dispenser (Labcyte). […] The assay plates were centrifuged at 200 g for 1 min, then incubated at RT for 30 min. Following inhibitor incubation, the kinase reaction was initiated with 1 μL of 50 μM ATP (final concentration 10 uM) or 1 μL of Kinase reaction buffer for negative controls and reacted for 1 hr at 37° C. The reaction was then quenched with 5 μL Kinase Stop buffer (100 mM Tris pH 8, 300 mM NaCl, 40 mM EDTA) and incubated for 1 min with shaking at 450 rpm. 2 μL of each quenched reaction was added to 18 μL TBS (50 mM Tris pH 8, 150 mM NaCl) in white 384-well Nunc Maxisorp plates (Thermo Scientific) using a PlateMate Plus (Thermo Scientific). The plate was shaken for 1 min at 450 rpm, sealed and incubated at 4° C. overnight to allow the protein contents of the reaction to bind to the Maxisorp plate. The next morning the solution was removed, and the plates were then subjected to 3 washes in TBST (50 mM Tris pH 7.5, 150 mM NaCl. 0.05% Tween 20) for 5 min each wash with shaking at 400 rpm. The plates were blocked with TBST buffer containing 3% BSA (w/v) at RT for 2 hrs at RT. The blocking buffer was removed, and the plates were immunoblotted with 1:50,000 dilution of T^PNKCC1 in blocking buffer for 2 hrs at RT. The plates were then subjected to 3 washes in TBST for 5 min each wash with shaking at 400 rpm, followed by incubating with 1:10,000 dilution of 2° DAR-HPR antibody in blocking buffer for 1 hr at RT. The plates were washed again 3 times in TBST for 5 min each wash with shaking at 400 rpm. Signal was detected by SuperSignal ELISA Pico Chemiluminescent substrate (ThermoScientific), and read on an EnVision multi-label plate reader (Perkin-Elmer).

[5] = tested on: mDCT15 cells; test: Cell volume of mDCT15 cells by microscopic imaging; assay type: cell-based, mouse; details: 40 μM, four-hour time course
Method: FIGS. 12A-12F illustrate the finding that (7a) depletes phosphorylated NKCC1 and reduces cell volume in mDCT15 cells. FIG. 12A: Structures of (7a) and analog (7b). FIG. 12B: In vitro dose-dependent inhibition comparing (7a) and (7b) evaluated by western blot using T^PNKCC1. FIG. 12C: Western blot analysis of NKCC1 phospho-depletion in mDCT15 cells under various conditions. FIG. 12D: mDCT15 cells were incubated with 40 μM (7a), 40 μM Cabozantinib (XL-184), or equivalent volume of DMSO vehicle for 1 hr, 2 hr, 3 hr, and 4 hr. NKCC1 phosphorylation was monitored using the T^PNKCC1 antibody and compared to total NKCC1. FIG. 12E: HEK 293 induced to express KCC were incubated with 40 μM (7a), 40 μM Cabozantinib (XL-184), or equivalent volume of DMSO vehicle for 1 hr, and 2 hr time points. KCC phosphorylation was monitored using the T^PKCC antibody and compared to total KCC using C-Myc antibody. FIG. 12F: mDCT15 cells were incubated with 40 μM (7a), 40 μM Cabozantinib (XL-184), or equivalent volume of DMSO vehicle for a 1 hr, 2 hr, 3 hr, and 4 hr time course. After incubation the cells were imaged using 20× bright field microscopy. 1 hr and 4 hr time points are shown.
FIG. 13 comprises images of mDCT15 cells incubated with 40 μM (7a) 40 μM, Cabozantinib (XL-184), or equivalent volume of DMSO vehicle for a 1 hr, 2 hr, 3 hr, and 4 hr time course (partially shown in FIG. 12F). […]

[6] = tested on: NKCC1 phosphorylation in mDCT15 cells; test: NKCC1 phosphorylation in mDCT15 cell lysates (T^PNKCC1 immunoblot); assay type: cell-based, mouse; details: 40 μM, span of 4 hrs
Method: Mouse distal convoluted tubule (mDCT15) cells (Naguro, et al., 2012, Nature comm. 3:1285) were cultured in DMEM/Ham's F-12 media supplemented with 1% PSN and 5% FBS. Before each set of experiments 2×10^5 cells/well were plated in 24-well plates treated with 100 ug/mL poly-D-lysine and grown at 37° C. in 5% CO2 to ˜95% confluency. […] […] […] All media was removed and 100 μL of cell culture lysis buffer (100 mM Tris/HCl pH 7.4, 300 mM NaCl, 5 mM EDTA, 5 mM EGTA, 2 mM DTT, 10% glycerol, 2% triton X-100, Roche protease inhibitor, and phosphatase inhibitor cocktail 3 (Sigma-Aldrich St. Louis, MO)) was added to each well, transferred to a clean 1.5 mL Eppendorf tube, and incubated on ice for a minimum of 10 min. The cell lysates were centrifuged at 21,000 G for 10 min. The clarified lysate was stored at −80° C.
Protein samples were subjected to electrophoresis on polyacrylamide gels and transferred to PVDF membranes. The membranes were incubated overnight in TBST blocking buffer containing 5% milk (w/v) (for the antibodies raised in sheep) or 3% BSA (w/v) (for all other antibodies). […] Signal was detected by enhanced chemiluminescence (Bio-rad) imaged on a ChemiDoc™ XRS+ CCD camera.

| SMILES | IC50 [3] [µM] | SPAK inhibition [4] | pancreatic cancer cell migration [1] | Activity in GMB612, 0.2 μM [2] | Activity in GMB612, 2 μM [2] | Cell volume change, mDCT15 cells [5] | NKCC1 phosphorylation over time without osmotic triggers [6] |
| --- | --- | --- | --- | --- | --- | --- | --- |
| Nc1ccn([C@@H]2O[C@H](CO)[C@@H](O)C2(F)F)c(=O)n1 [Gemcitabine, reference compound] |  |  | does not |  |  |  |  |
| COc1ccc(Nc2ncc(C#N)c(Nc3cccc4c3C(=O)NC4)n2)cc1N1CCN(C)CC1 [(6b)] | 0.05 | measurable SPAK inhibition |  | Yes | Yes |  |  |
| COc1cc2nccc(Oc3ccc(NC(=O)C4(C(=O)Nc5ccc(F)cc5)CC4)cc3)c2cc1OC [XL-184, Cabozantinib malate] |  |  |  |  |  | neither XL-184 nor Vehicle had any detectable change | no discernable effect on NKCC1 phosphorylation |
| CNC(=O)c1ccccc1Nc1nc(Nc2ccc(OC)c(N3CCN(C)CC3)c2)ncc1C#N [(6d), 2-((5-cyano-2-((4-methoxy-3-(4-methylpiperazin-1-yl)phenyl)amino)pyrimidin-4-yl)amino)-N-methylbenzamide] | 5.2 | measurable SPAK inhibition |  | No | Yes |  |  |
| COc1ccc(Nc2ncc(C#N)c(Nc3ccccc3-c3ncco3)n2)cc1N1CCN(C)CC1 [(6c), 2-((4-methoxy-3-(4-methylpiperazin-1-yl)phenyl)amino)-4-((2-(oxazol-2-yl)phenyl)amino)pyrimidine-5-carbonitrile] | 9 |  |  | No | No |  |  |

Continued, in another order:

| IC50 [3] [µM] | SPAK inhibition [4] | SMILES | pancreatic cancer cell migration [1] | Activity in GMB612, 0.2 μM [2] | Activity in GMB612, 2 μM [2] | Cell volume change, mDCT15 cells [5] | NKCC1 phosphorylation over time without osmotic triggers [6] |
| --- | --- | --- | --- | --- | --- | --- | --- |
| 12 |  | COc1ccc(Nc2ncc(C#N)c(Nc3ccccc3-c3nc[nH]n3)n2)cc1N1CCN(C)CC1 [(6g), 4-((2-(1H-1,2,4-triazol-3-yl)phenyl)amino)-2-((4-methoxy-3-(4-methylpiperazin-1-yl)phenyl)amino)pyrimidine-5-carbonitrile] |  | No | No |  |  |
| 2.6 | measurable SPAK inhibition | CONC(=O)c1ccccc1Nc1nc(Nc2ccc(OC)c(N3CCN(C)CC3)c2)ncc1C#N [(6e), 2-((5-cyano-2-((4-methoxy-3-(4-methylpiperazin-1-yl)phenyl)amino)pyrimidin-4-yl)amino)-N-methoxybenzamide] |  | No | Yes |  |  |
| 3.5 | measurable SPAK inhibition | COc1ccc(Nc2ncc(C#N)c(Nc3ccccc3-c3nnn[nH]3)n2)cc1N1CCN(C)CC1 [(6f), 4-((2-(1H-tetrazol-5-yl)phenyl)amino)-2-((4-methoxy-3-(4-methylpiperazin-1-yl)phenyl)amino)pyrimidine-5-carbonitrile] |  | No | Yes |  |  |
